Data published in US10058612B2, “Impaired energy processing disorders and mitochondrial deficiency” (priority 2011, dated 2018).
Entries after “also recorded” stand apart in the source; their conditions may differ. Like-named read-outs stand apart in the source and are kept apart here.

Columns and labels:
[1] = tested on: coq null mutants (Q-less yeast); details: cited from earlier work
[2] = tested on: coq null mutants (Q-less yeast); assay type: cell-based, S. cerevisiae; details: for viability of cells by quantitative colony counting / viability of coq mutants after fatty acid treatment: 200 μM fatty acid; for viability of cells by quantitative colony counting: 1, 2, 4 h; for viability of coq mutants after fatty acid treatment: plate dilution assay
Procedure: FIG. 3. […] Yeast coq3, coq7 and coq9 null mutants were prepared in the W303 yeast genetic background (WT). Yeast strains were grown in YPD medium (1% Bacto-yeast extract, 2% Bacto-peptone, 2% dextrose) and harvested while in log phase growth (OD600 nm=0.1-1.0). Cells were washed twice with sterile water and resuspended in phosphate buffer (0.10 M sodium phosphate, pH 6.2, 0.2% dextrose) to an OD600 nm=0.2. Samples were removed and 1:5 serial dilutions starting at 0.20 OD/ml were plated on YPD plate medium, to provide a zero time untreated control (shown in top left panel). The designated fatty acids were added to 200 μM final concentration to 20 ml of yeast in phosphate buffer. At 2 h, 4 h, and 16 h samples were removed, 1:5 serial dilutions prepared, and spotted onto YPD plate medium. Pictures were taken after 2 days of growth at 30° C.
FIG. 4. […] The fatty acid sensitive assay was performed as described in FIG. 3, except that 100 μl aliquots were removed at 1, 2, and 4 h and, following dilution, spread onto YPD plates. Pictures were taken after 2 to 2.5 days, and the number of colonies counted. Yeast strains include Wild type (circles), atp2 (triangles), or coq3 (squares). Fatty acid treatments include oleic C18:1 (solid line), linolenic, C18:3, n-3 (dashed line) or 11,11,14,14-D4-linolenic, C18:3, n-3, (dotted line).
Q-less yeast (coq mutants) provide an ideal system to assess in vivo autoxidation of fatty acids. Coenzyme Q (ubiquinone or Q) serves as a small lipophilic antioxidant as well as an electron shuttle in the respiratory chain of the mitochondrial inner membrane.
A plate dilution assay can be used to assess PUFA sensitivity. This assay can be performed by spotting serial five-fold dilutions of aliquots onto YPD plate media (FIG. 3). The sensitivity of the different strains can be observed by visual inspection of the density of cells in each spot.

[3] = tested on: wild-type (strain W303-1B) cells; details: four hour treatment; cited from earlier work
[4] = tested on: Q-less coq3 yeast strains; assay: Yeast incubation with different ratios of LA to D2-LA, plate dilution; assay type: cell-based
Procedure: FIG. 9. […] Wild-type, yeast Q-less coq3, or respiratory deficient cor1 null mutants were incubated in the presence of 200 μM of LA and D2-LA at different ratios of PUFAs. Serial dilutions (1:5) starting at 0.2 OD/ml were spotted on YPD solid plate medium. A zero-time untreated control is shown on the top left. Growth at 30° C.
Wild-type, yeast Q-less coq3, or respiratory deficient cor1 null mutants were incubated in the presence of 200 μM of LA and D2-LA at different ratios of PUFAs, as indicated in FIG. 9. Serial dilutions (1:5) starting at 0.2 OD/ml were spotted on YPD solid plate medium. […] Growth was at 30° C.

[5] = Study in patients with schizophrenia; assay type: in vivo; details: 0.01-100 mg/kg daily over six months
Procedure: (§1) Patients with schizophrenia and free of antipsychotic medication are selected for the study. […] Each week, patients are evaluated for frequency and duration of schizophrenic episodes. Additionally, blood samples are taken each week and biomarkers of oxidative stress, such as the biomarkers described above, are measured.

[6] = Kinetics of O2 consumption during AMVN-initiated oxidation (glass capillary microvolumeter); assay type: physicochemical; details: for rate of oxidation, ROX: 0.71 M in chlorobenzene, 40 mM AMVN
Procedure: FIG. 7. Kinetics of O2 consumption accompanied the oxidation of 0.71 M LA (plots 1 and 2) and 0.71 M D2-LA (plot 3) in chlorobenzene initiated by 40 mM AMVN at 37° C. Plot 2-0.23 mM HPMC was added to 0.71 M LA.
The kinetics of oxygen consumption during the oxidation of LA and D2-LA was studied with a glass capillary microvolumeter (FIG. 7). The rate of oxidation, ROX, was measured as a slope of [O2] traces. The rate of initiation, RIN, was determined by the inhibitor method with HPMC (“6-hydroxy-2,2,5,7,8-pentamethylbenzochroman”) as a reference inhibitor. RIN was calculated from the induction period of inhibited oxidation, tIND: RIN=2·[HPMC]/tIND. […] See Carpenter, “Determination of Organic Reaction Mechanisms” (John Wiley & Sons, 1984), p. 89.

[7] = Study in patients suffering from Bipolar Disorder; details: in vivo
Procedure: as §1
A similar study can be performed with patients suffering from Bipolar Disorder.

[8] = Kinetics of oxidation of mixtures of D2-LA and LA; assay type: physicochemical
Procedure: FIG. 8. Dependence of the rate of oxidation of the mixture of LA and D2-LA in chlorobenzene solution on mixture composition. Conditions: [LA]+[11,11-d2-LA]=0.775 M; [AMVN]=0.0217 M; 37° C. RIN=(1.10±0.08)×10^−7 M/sec.
To simulate the likely in vivo conditions, the kinetics of the oxidation of the mixtures of D2-LA and LA were studied (FIG. 8). In the experiments, the concentration of LA plus 11,11-d2-LA was 0.775 M; the concentration of AMVN was 0.0217 M; and the reactions were carried out at 37° C. The results afforded an RIN of 1.10±0.08×10^−7 M/sec.

[9] = set-up: species or system WT mice; details: both, mouse, in vivo, 90 days
Text: WT mice were housed at 12 animals (males separate from females) per cage and fed for 90 days ad libitum (typically, 5-6 g/day) on the AIN 93 diet, as pellets, with 6% total fat. […] The animals were sacrificed, organs harvested and stored at low temperature prior to analysis without the use of preservation agents.

[10] = Study in patients suffering from Huntington's disease; details: in vivo
Procedure: as §1
A similar study can be performed with patients suffering from Huntington's disease.

Wild-type yeast cells = assay: C11-Bodipy 581/591 lipid peroxidation in copper-stressed yeast; assay type: cell-based; details: 200 μM fatty acid 2 hours, then 50 μM CuSO4 60 min
Procedure: Wild-type yeast cells were treated as described above except yeast were treated with 200 μM of the designated fatty acid for 2 hours, washed with sterile water, and were either not treated (triangles) or treated with 50 μM CuSO4 (squares) at room temperature. After 60 min of copper treatment cells were treated with 8 μM C11-Bodipy 581/591 for 30 min at room temperature. Four 100 μl aliquots were plated in a 96-well plate and the fluorescence was measured.

[11] = tested on: m-Fibroblasts (Frda^L3/L-; h-I54F); assay: Friedreich's ataxia model: viability of FAC/BSO-treated fibroblasts (Promega Cell-Glow); assay type: cell-based; details: for cell survival on co-administration with idebenone: compared with individual administration of idebenone, D-LA, or D-ALA
Procedure: m-Fibroblasts (Frda^L3/L-; h-I54F) have both frataxin alleles deleted and over-express a mutated form of human frataxin (I154F) that is associated with the disease. […] Cells were plated in 48 well-plates and treated with FAC and BSO for 48 h and 24 h respectively. […] At the end of the experiment, cell viability was assessed by the Promega Cell-Glow kit and measured in Arbitrary Luminescence Units (ALU) also expressed as % survival (FIG. 22). In FIG. 22, NT stands for not treated; F stands for iron ammonium citrate; B stands for buthionine sulphoximine; CC stands for carrier control DMSO (dimethylsulfoxide) used to bring the final concentration in the assay to 0.5%; and IDB stands for idebenone.
Likewise, an investigation was undertaken to measure the effects of co-administering idebenone with D-PUFAs (FIG. 23).
Additional experiments were also performed to study the effects of co-administering different D-PUFAs (data not shown). I154F cells were treated with either 100% D-LA, 75% D-LA/25% D-ALA, 50% D-LA/50% D-ALA, and 100% D-ALA.

[12] = Incorporation into animal tissues by isotope ratio mass-spectrometry; details: 0.01-100 mg/kg diet; brain, liver, heart, lung
Procedure: Brain, liver, heart, and lung tissue are removed, and homogenate samples from control mice and test compound-treated mice are analyzed for deuterium content as described for Example 7 above.

[13] = tested on: Q-less coq3 yeast strains; details: 200 μM total ALA and D4-Lnn
Procedure: FIG. 10. […] Serial dilutions (1:5) starting at 0.2 OD/ml were spotted on YPD solid plate medium. Growth at 30° C.
Serial dilutions (1:5) starting at 0.2 OD/ml were spotted on YPD solid plate medium. Growth was at 30° C.

For `CCCCCCCC/C=C\CCCCCCCC(=O)O` [oleic acid, reference compound], the “sensitivity of Q-less yeast to the fatty acid” value [1] is given as “behave the same as the wild-type parental strain” and the “viability of cells by quantitative colony counting” value [2] is given as “similar”.

In the case of `CC/C=C\C/C=C\C/C=C\CCCCCCCC(=O)O` [ALA, cis,cis,cis-9,12,15-Octadecatrienoic acid, reference compound], the “viable Q-less (coq2, coq3, and coq5) yeast mutants” value ([1]; four hour treatment) is given as “Less than 1%”, the “wild-type cells remaining viable” value [3] is given as 70% and the “viability of coq mutants after fatty acid treatment” value (from here on “viability of coq mutants”) [2] is given as “dramatic loss of viability”. The “reduction of viability of the coq mutants” value ([2]; treatment for 4 h, colony counting) was “more than 100 fold”.

For `[2H]C([2H])(/C=C\CCCCC)/C=C\CCCCCCCC(=O)O` [D2-LA, 11,11-Dideutero-cis,cis-octadeca-9,12-dienoic acid], the “minimal amount sufficient to cancel the toxicity of LA” value ([4]; 200 μM total LA and D2-LA) was 10-15%, the “levels of biomarkers associated with oxidative stress” value (shortened to “levels of biomarkers associated”) [5] was “reduce the levels of biomarkers associated with oxidative stress” and the “effect of addition of HPMC on oxidation” value [6] was “did not result in the decrease in ROX and the appearance of any detectable induction period”. For the same molecule, the “length of the kinetic chain, ν=ROX/RIN” value [6] was “≈ 1.1”, the “rate of oxidation, ROX” value ([6]; 37° C.) was 1.8e-07 M/s and the “kinetic isotope effect (KIE) from ROX for LA and D2-LA” value ([6]; chlorobenzene, 37° C.) was “≈ 35”. The “levels of biomarkers associated” value [7] was “reduce the levels of biomarkers associated with oxidative stress”, the “protection of non-deuterated LA against autoxidation” value ([8]; mixture with LA) was “‘protects’ the non-deuterated LA against autoxidation” and the protection against autoxidation ([8]; mixture with non-deuterated methyl linoleate, data not shown) was “qualititatively similar effect”. For the same molecule, the “total fat being deuterated, liver” value [9] was “about 32%”, the “levels of biomarkers associated” value [10] was “reduce neuronal cell death and the levels of biomarkers associated with oxidative stress” and the “levels of lipid peroxidation” value (Wild-type yeast cells) was “lower levels of lipid peroxidation similar to yeast not treated with PUFA”.

In the case of D-ALA, the “cell survival on co-administration with idebenone” value [11] was “increased cell survival”.

For “11,11,14,14-Tetradeutero-cis,cis,cis-octadeca-8,12,15-trienoic acid [D4-ALA]”, the “presence in tissues and cells (deuterium content)” value [12] was “expected to be found in the tissues and cells analyzed”, the “levels of biomarkers associated” value [5] was “reduce the levels of biomarkers associated with oxidative stress” and the “levels of biomarkers associated” value [7] was “reduce the levels of biomarkers associated with oxidative stress”. For the same molecule, the “minimal amount sufficient to cancel the toxicity of ALA” value [13] was 15-20%, the “levels of biomarkers associated” value [10] was “reduce neuronal cell death and the levels of biomarkers associated with oxidative stress” and the “viability of cells by quantitative colony counting” value [2] was “similar”. The “viability of coq mutants” value ([2]; listed as D4-linolenic acid) was “resistant to PUFA-mediated cell killing; also recorded: not killed”.

In the case of `[2H]C([2H])(/C=C\C/C=C\CC)C/C=C\CCCCCCC(=O)O` [11, 11-D2-linolenic acid, 11,11-Dideutero-cis,cis,cis-octadeca-8,12,15-trienoic acid], the “viability of coq mutants” value [2] was “comparable protection”.

For `[2H]C([2H])(/C=C\CCCCC)/C=C\CCCCCCCC(=O)O` [D-LA], the “cell viability (ALU, % survival)” value ([11]; FAC 48 h, BSO 24 h, PUFA added 2 hours after BSO) was “dose-dependent rescue of viability” and the “cell survival on co-administration with idebenone” value [11] was “increased cell survival”.

In the case of `CCCCC/C=C\C/C=C\C/C=C\C/C=C\CCCC(=O)O` [arachidonic acid], the “sensitivity of Q-less yeast to the fatty acid” value [1] is given as “hypersensitive”.

With `[2H]C(/C=C\CCCCC)/C=C\CCCCCCCC(=O)O` (centres unmarked) [11,11-D,H-LA, [11-^2H]-linoleic acid] the cell viability ([4]; after 3 hours of treatment, data not shown) was “no detectable loss in cell viability”.

In the case of `[2H]C([2H])(/C=C\CC)/C=C\CC/C=C\CCCCCCC(=O)O` [14, 14-D2-linolenic acid, 14,14-Dideutero-cis,cis,cis-octadeca-8,12,15-trienoic acid], the “viability of coq mutants” value [2] was “comparable protection”.

For `CCCCC/C=C\C/C=C\CCCCCCCC(=O)O` [LA, cis,cis-9,12-Octadecadienoic acid, reference compound], the “length of the kinetic chain, ν=ROX/RIN” value [6] was 38±3, the “rate of oxidation, ROX” value ([6]; 37° C.) was 6.1e-06 M/s and the oxidizability ([6]; n=5) was 0.0215±0.008 M^−0.5s^−0.5.
